The values that follow come from patent publication US12661338B2, “Heterocyclic compounds as modulators of beta-catenin / TCF4 interaction” (AGENCY FOR SCIENCE, TECHNOLOGY AND RESEARCH, priority 2019, dated 2026).

Holding throughout (format): cell-based
One assay deals with STF3A cells. Description: Viability (toxicity) of STF3A reporter cells, CCK-8. The following applies: Table 3; STF3A reporter cell line. Here is the method: (§1) The Wnt STF3A reporter cells were seeded as 20,000 cells in 100 μL culture medium per well in 96-well plates (Corning cat. #3903, Falcon cat. #353072). The next day, 5-fold dilutions of the compounds in DMSO were added to the cells at a final concentration of 1% DMSO. After 24 hr incubation, the viability of the cells was determined with cell counting kit-8 (CCK-8, Dojindo cat. #CK04) cell viability reagent according to the manufacturer's protocol while the TOPFlash reporter activity was determined with Steady-Glo luciferase reagent.
(§2) The average signal from DMSO treated wells was calculated for each plate, and the signal from each treatment well was normalized against the average DMSO signal from the respective plate. The normalized values were plotted against the concentrations tested using GraphPad Prism 5, and the EC50 values were determined through either three- or four-parameter nonlinear regression.

Assay [1] has as its system Wnt signalling (TOPFlash reporter, STF3A cells). Description: Wnt STF3A TOPFlash reporter dose response (constitutive Wnt3A). Here is the method:
(§3) Wnt STF reporter cells (HEK 293 cells stably transfected with TOPFlash reporter) and STF3A reporter cells (STF cells with constitutive secretion of Wnt3A) were kind gifts from David Virshup (Duke-NUS Graduate Medical School, Singapore). HCT116, DLD-1, and SW480 cell lines were obtained from ATCC. The Hippo pathway TEAD reporter (cat. #60618) and Myc signalling pathway reporter (cat. #60520) cells lines were purchased from BPS Bioscience, Inc.
as §1, §2

The subject of assay [2] is Wnt signalling (TOPFlash reporter, STF cells). Kind of assay: Wnt STF TOPFlash reporter dose response (Wnt3A-stimulated). Here is the method: as §3
as §1, with “STF” for “STF3A”, “DMSO. The cells were also stimulated with 500 ng/mL recombinant human Wnt3A (RnD systems, cat. #5036-WN-010).” for “DMSO.”
as §2

Another assay concerns STF cells. Kind of assay: Viability (toxicity) of STF reporter cells, CCK-8. As to conditions: Table 3; STF reporter cell line. Here is the method:
as §1, with “STF” for “STF3A”, “DMSO. The cells were also stimulated with 500 ng/mL recombinant human Wnt3A (RnD systems, cat. #5036-WN-010).” for “DMSO.”
as §2

The subject of assay [3] is Wnt target genes in HCT116 CRC cells. Description: Expression of beta-catenin (CTNNB1) and Wnt target genes in HCT116 CRC cells. Here is the method:
The effects of the GB1874 analogues were tested on the expression of Wnt target genes in HCT116 CRC cells.

For assay [4], the system named is HCT116 cells. Description: Proliferation assay (CellTiter-Glo). As to conditions: 10 μM daily. Here is the method:
HCT 116 cells were seeded as 3,000 cells in 100 μL growth medium per well in 96-well plates (Corning cat. #3903) and allowed to attached overnight. Cells were then treated continuously with compounds at a final concentration of 10 μM, 0.1% DMSO, for 4 days with daily medium change. Cell proliferation each day was determined using CellTiter-Glo luminescent cell viability assay (Promega cat. #G7573) according to the manufacturer's protocol.
In general terms: ATP-based viability assays read luminescence as a measure of living cells.

A further assay deals with CRC1258. Kind of assay: Viability of primary patient-derived colorectal cancer cell line. The following applies: CRC1258, Liver Met.
A further assay relates to CRC2255. The description is as above.
In the next assay the test system is CRC2440. The description is as above.
For the next assay, the system named is CRC2423. The assay is described as above.
The next assay concerns CRC1707. Described as above.
The test system of the next assay is CRC1463. The assay is described as above.
The test system of the next assay is CRC2001. The description is as above.
For the next assay, the system named is CRC1489. The description is as above.
The test system of the next assay is CRC2367. Described as above.
Another assay concerns CRC1414. Described as above.
The next assay concerns CRC948. The description is as above.
The test system of the next assay is CRC1846. The assay is described as above.
Another assay concerns CRC1850. Described as above. The following applies: CRC1850, Liver Met.
A further assay concerns CRC1671. The description is as above.
In a further assay the test system is CRC2413. The description is as above.
The test system of another assay is CRC1837. The description is as above. As to conditions: CRC1837, Liver Met.
In a further assay the test system is CRC1177. The description is as above.
The test system of the next assay is CRC1775. The description is as above.
For assay [5], the system named is Myc reporter (Luc)-HCT116 cells. Description: Myc signalling reporter dose response. As to conditions: Homo sapiens, HCT-116, 24 hr. Here is the method:
The Myc reporter (Luc)-HCT116 cells were seeded as 25,000 cells in 100 μL assay medium per well in 96-well plates (Corning cat. #3903, Falcon cat. #353072). The assay medium consists of the growth medium without G-418. The next day, 4-fold dilutions of the compounds in DMSO were added to the cells at a final concentration of 1% DMSO. After 24 hr incubation, the viability of the cells was determined with PrestoBlue cell viability reagent while the luciferase reporter activity was determined with Steady-Glo luciferase reagent.
as §2

For the next assay, the system named is SW480 cells. Description: Dose response viability of CRC cells (CellTiter-Glo). The following applies: Homo sapiens, 24 hr. Here is the method: (§4) HCT116, DLD-1, and SW480 cells were seeded as 5,000 cells in 100 μL growth medium per well in 96-well plates (Corning cat. #3903). The next day, 5-fold dilutions of the compounds in DMSO were added to the cells at a final concentration of 1% DMSO. After 24 hr incubation, the viability of the cells was determined with CellTiter-Glo luminescent cell viability reagent (Promega cat. #G7573) according to the manufacturer's protocol.
as §2

Another assay relates to DLD-1 cells. The assay is described as above. As to conditions: Homo sapiens, 24 hr. Here is the method:
as §4, §2

Assay [6] deals with HCT116 cells. Described as above. As to conditions: Homo sapiens, HCT-116, 24 hr. Here is the method:
as §4, §2

The test system of assay [7] is Hippo pathway TEAD reporter cells. Description: Hippo signalling TEAD reporter dose response. As to conditions: 24 hr, activation of the Hippo pathway (decrease of reporter signal). Here is the method: The Hippo TEAD reporter cells were seeded as 100,000 cells in 100 μL assay medium per well in 96-well plates (Corning cat. #3903, Falcon cat. #353072). The assay medium consists of the growth medium without G-418. The next day, 5-fold dilutions of the compounds in DMSO were added to the cells at a final concentration of 1% DMSO. After 24 hr incubation, the viability of the cells was determined with CCK-8 cell viability reagent while the luciferase reporter activity was determined with Steady-Glo luciferase reagent.
as §2

Setting [8] is: Table 3, STF3A reporter cell line, read-out: STF3A Inhibition IC50.
The mark [9] stands for this setting: Table 3, STF reporter cell line, read-out: STF Inhibition IC50.

Each structure is given as a SMILES string. Read-outs that look alike come from different tables or passages of the source.

For orientation: IC50 means the concentration at which inhibition is half-maximal. Regarding `Cc1ccccc1OCc1nnc(SCCSc2nnc(COc3ccccc3C)n2Cc2ccccc2)n1Cc1ccccc1` [GB1874A], the IC50 with STF3A cells is greater than 100 µM; in [1] (setting [8]) it was 1.2 µM; in assay [2] (setting [9]), 28 µM; in the assay with STF cells, greater than 100 µM.

`O=C(CSc1nnc(Cc2ccccc2)n1Cc1ccco1)NC1CCCC1` [GB1874B]: the IC50 in the assay with STF3A cells was greater than 100 µM; in assay [1] (setting [8]) it was greater than 100 µM; in [2] (setting [9]), 48 µM; with STF cells it was greater than 100 µM.

On to `CC1CCCC(C)N1C(=O)CSc1nnc(COc2ccccc2)n1Cc1ccccc1` (stereo not drawn) [GB1874C], for which the IC50 was found to be 78 µM with STF3A cells, 46 µM in assay [1] (setting [8]), 7.6 µM in [2] (setting [9]) and 76 µM in the assay on STF cells. Further, the “beta-catenin (CTNNB1) gene expression” value in assay [3] is “lesser effect”. Besides, in assay [3], the “expression of Wnt target genes AXIN2, BIRC5, BMP4, CCND1” value (“expression of Wnt target genes AXIN2” below) was “potently inhibit Wnt target genes”.

Regarding `CCOc1ccc(C(=O)CSc2nnc(COc3ccccc3)n2Cc2ccccc2)cc1` [GB1874D], the IC50 is 25 µM in the assay with STF3A cells, 21 µM in assay [1] (setting [8]), 21 µM in assay [2] (setting [9]) and greater than 100 µM in the assay with STF cells.

Consider `CCOC(=O)C(C)(C)Sc1nnc(COc2ccccc2)n1Cc1ccccc1` [GB1874E], for which the IC50 in the assay on STF3A cells was 100 µM; in assay [1] (setting [8]) it was 16 µM; in assay [2] (setting [9]) it was 12 µM; in the assay with STF cells it was 71 µM. Further, the “beta-catenin (CTNNB1) gene expression” value in assay [3] was “lesser effect”. Also, the “expression of Wnt target genes AXIN2” value in assay [3] was “potently inhibit Wnt target genes”.

With `Cc1ccc(OCc2nnc(SCC(=O)c3ccc(-c4ccccc4)cc3)n2Cc2ccco2)cc1` [GB1874F], the IC50 in the assay on STF3A cells was greater than 100 µM; in [1] (setting [8]), 10 µM; in [2] (setting [9]), 5.4 µM; in assay [2] (unit M, read-out: STF IC50), 5.4 µM; in the assay with STF cells it was 100 µM. The “beta-catenin (CTNNB1) gene expression” value in [3] is listed as “lesser effect”. In addition, in assay [3], the “expression of Wnt target genes AXIN2” value is “potently inhibit Wnt target genes”.

As to `CCc1ccc(OCc2nnc(SC(C)C(=O)C3C4CC5CC(C4)CC3C5)n2Cc2ccccc2)cc1` (stereo not drawn) [GB1874G], the IC50 in the assay on STF3A cells is greater than 100 µM; in [1] (setting [8]) it was 6.7 µM; in assay [2] (setting [9]), 3.9 µM; in assay [2] (unit M, read-out: STF IC50) it was 3.9 µM; with STF cells it was greater than 100 µM. The “beta-catenin (CTNNB1) gene expression” value in assay [3] is listed as “lesser effect”. The “expression of Wnt target genes AXIN2” value in assay [3] was “potently inhibit Wnt target genes”.

In the case of `CCc1ccc(OCc2nnc(SC3CCCCC3=O)n2C(C)c2ccccc2)cc1` (stereo not drawn) [GB1874H], the IC50 with STF3A cells turned out to be 46 µM; in assay [1] (setting [8]), 11 µM; in assay [2] (setting [9]) it was 5 µM; in the assay on STF cells, 49 µM. In assay [3], the “beta-catenin (CTNNB1) gene expression” value is on record as “lesser effect”. In addition, the “expression of Wnt target genes AXIN2” value in assay [3] is reported as “potently inhibit Wnt target genes”.

Take `Cc1ccc2nc(NC(=O)CSc3nc4c(c(=O)n3-c3ccccc3)SCC4)sc2c1` [IWP-2]: the “growth of HCT116 cells” value with HCT116 cells [4] is on record as “less effective at inhibiting the growth of HCT116 cells”.

What is called EC50 is the concentration at which the effect is half-maximal. The low end stands for higher potency in that assay, the high end for lower potency in that assay. On to `Oc1nc(-c2ccc(C(F)(F)F)cc2)nc2c1CSCC2` [XAV939, reference compound], for which the EC50 with CRC1258 was 70 µM; in the assay with CRC2255, greater than 250 µM; in the assay on CRC2440 it was 75 µM; with CRC2423, 250 µM; in the assay on CRC1707, 135 µM; in the assay with CRC1463, 250 µM. Moreover, the EC50 was greater than 250 µM in the assay with CRC2001; 105 µM with CRC1489; greater than 250 µM in the assay on CRC2367; greater than 250 µM in the assay on CRC1414; greater than 250 µM in the assay on CRC948; 239 µM with CRC1846. Further, the EC50 with CRC1850 was 208 µM; in the assay with CRC1671, greater than 250 µM; with CRC2413, 200 µM; in the assay with CRC1837, greater than 250 µM; in the assay on CRC1177 it was 250 µM; in the assay with CRC1775, greater than 250 µM. For the same molecule, in the assay on HCT116 cells [4], the “growth of HCT116 cells” value is listed as “less effective at inhibiting the growth of HCT116 cells”.

As for `CCc1ccc(-c2nc(CSCC(=O)NCCc3ccccc3)c(C)o2)cc1` [iCRT3, reference compound], the IC50 in the assay with STF3A cells amounted to 74 µM; in [5], 50 µM; in assay [1] (Table 1, STF3A reporter cells, 24 hr, read-out: IC50 Wnt (STF3A)), 64 µM; in assay [1] (setting [8]), 42 µM; in [2] (Table 1, STF reporter cells, 500 ng/mL Wnt3A, 24 hr, read-out: IC50 Wnt (STF)), 27 µM; in assay [2] (setting [9]) it was 11 µM. Further, the results for the IC50 (in assay [7] (read-out: IC50 Hippo (activation)); in the assay with STF cells) were 1600 nM and 88 µM, respectively. Moreover, the “beta-catenin (CTNNB1) gene expression” value in assay [3] is given as “lesser effect”. Moreover, in assay [3], the “expression of Wnt target genes AXIN2” value is “potently inhibit Wnt target genes”. Also, the values for the EC50 in the assay with SW480 cells, in the assay on DLD-1 cells and with HCT116 cells [6] were 64 µM, 48 µM and 39 µM, respectively. For the same molecule, in assay [7], the “IC50 Hippo (activation)” value was “activated”.
